Reference: patent US4551472A, “Unsymmetrical bis-carbamate compounds” (priority 1984, dated 1985)

Columns and labels:
[1] = tested on: root-knot nematode, Meloidogyne incognita var. acrita; assay: Nematocide Test; further: key: 1: severe galling, equal to untreated plants; 2: moderate galling; 3: light galling; 4: very light galling; 5: no galling, perfect control; assay type: in vivo; settings: 3.33 m.g. per jar; cucumber, approximately 3 weeks
Procedure: The test organism used was the infective migratory larvae of the root-knot nematode, Meloidogyne incognita var. acrita, reared in the greenhouse on roots of cucumber plants. Infected plants were removed from the culture, and the roots are chopped very finely. A small amount of this inoculum was added to a pint jar containing approximately 180 cc. of soil. The jars were capped and incubated for one week at room temperature. During this period eggs of the nematode were hatched, and the larval forms migrated into the soil.
Ten ml. of the test formulation were added to each of the two jars for each dosage tested. Following the addition of chemical, the jars were capped, and the contents thoroughly mixed on a ball mill for 5 minutes.
The test compounds were formulated by a standard procedure of solution in acetone addition of an emulsifier, and dilution with water. Primary screening tests were conducted at 3.33 m.g. of the test compound per jar.
The jars were left capped at room temperature for a period of 48 hours, and the contents then transferred to 3 inch pots. Subsequently, the pots were seeded to cucumber as an indicator crop and placed in the greenhouse where they were cared for in the normal fashion for approximately 3 weeks.
The cucumber plants were then taken from the pots, the soil removed from the roots; and the amount of galling visually rated.
In the test for activity against nematodes (nem) activity was rated as follows: […]

Soy = assay: Phytotoxicity Test, soy; settings: 2500 ppm spray, ten days
Procedure: (§1) Experiments were also conducted to determine the phytotoxicity of representative compounds with respect to healthy fresh plants. […] The test plants were sprayed in accordance with the procedure described above for the Mite Foliage Spray Test so as to deliver approximately 100 milliliters of test solution to the leaves of each plant tested. The sprayed plants and controls were set aside for approximately one hour to allow the foliage to dry and were then placed in the greenhouse. After ten days the plants were visually inspected to determine the extent of foliage injury. A rating of 1 indicates no perceptible injury; 5 indicates the plant was dead and ratings of 2, 3 and 4 indicate intermediate degrees of injury based upon the number and extent to which leaves were injured.

Bean = assay: Phytotoxicity Test, bean; settings: 2500 ppm spray, ten days
Corn = assay: Phytotoxicity Test, corn; settings: 2500 ppm spray, ten days
Procedure: as §1

Tom = assay: Phytotoxicity Test, tomato; settings: 2500 ppm spray, ten days
Procedure: as §1

Cotton = assay: Phytotoxicity Test, cotton; settings: 2500 ppm spray, ten days
Procedure: as §1

SMILES | Biological Activity: Nem (nematode, galling rating) [1] | Phytotoxicity: Soy (Soy) | Phytotoxicity: Bean (Bean) | Phytotoxicity: Corn (Corn) | Phytotoxicity: Tom (Tom) | Phytotoxicity: Cotton (Cotton)
C#CCOC(=O)N(C)SN(C)C(=O)ON=C1SC(C)(C)C(=O)N1C [IV, N-[N-methyl-N-propargyloxycarbonylamino]N-[3,5,5-trimethylthiazolidin-4-one-2 O-(N-methylcarbamoyl)oxime]sulfide] | 1 | 2 | 1 | 1 | 2 | 2
CCC(C)c1cc([N+](=O)[O-])cc([N+](=O)[O-])c1OC(=O)N(C)SN(C)C(=O)ON=C(C)SC (stereo not shown) [XIX, N-[1-Methylthioacetaldehyde O-(N-methylcarbamoyl)oxime]N-[2,4-dinitro-6-sec-butylphenyl-(N-methylcarbamoyloxy)]sulfide] | 1 | 2 | 1 | 2 | 2 | 2
CSC(C)=NOC(=O)N(C)SN(C)C(=O)ON=C(C)C(=O)c1ccccc1 [XLI] | 1 | 1 | 1 | 1 | 1 | 1
CSC(C)=NOC(=O)N(C)SN(C)C(=O)ON=C1SCSCS1 [XL] | 5 | 1 | 1 | 1 | 1 | 1
CSC(C)=NOC(=O)N(C)SN(C)C(=O)Oc1cccc(N(C)C)c1 [XX, N-[1-Methylthioacetaldehyde O-(N-methylcarbamoyl)oxime]N-[3-(N',N'-dimethylamino)phenyl-(N-methylcarbamoyloxy)]sulfide] | 4 | 2 | 1 | 1 | 1 | 2
CSC(C)=NOC(=O)N(C)SN(C)C(=O)Oc1ccc(NC=O)c(C)c1 [XXI, N-[1-Methylthioacetaldehyde O-(N-methylcarbamoyl)oxime]N-[4-formylamino-3-methylphenyl-(N-methylcarbamoyloxy)]sulfide] | 4 | 1 | 1 | 1 | 1 | 1
CSC(C)=NOC(=O)N(C)SN(C)C(=O)Oc1ccc(C(C)(C)C)cc1Cl [XXIX] | 5 | 1 | 1 | 1 | 1 | 1
CC(C)c1ccc(OC(=O)N(C)SN(C)C(=O)ON=C2CSCCS2)cc1 [XXV, N-[2-O-(N-methylcarbamoyl)oximino-1,4-dithiane]N-[4-isopropyl-(N-methylcarbamoyloxy)benzene]sulfide] |  | 1 | 1 | 1 | 1 | 3
C#CCOC(=O)N(C)SN(C)C(=O)Oc1ccc(C)c(C)c1 [XXVII] | 5 | 2 | 1 | 1 | 1 | 2
C#CCOC(=O)N(C)SN(C)C(=O)Oc1cccc2ccccc12 [XXVI] | 4 | 2 | 1 | 1 | 1 | 1
CSC(C)=NOC(=O)N(C)SN(C)C(=O)Oc1cccc(Oc2ccccc2)c1 [XXXV] |  | 1 | 1 | 1 | 1 | 1
